Laboratory results published in ChEMBL document CHEMBL3734724, “Anticancer efficacy of unique pyridine-based tetraindoles” (Eur J Med Chem, 2015).
Activity calls are given as the source filed them. The rule behind the calls is not given here.

Assays:
[1] = Cytotoxicity against human M10 cells assessed as growth inhibition at 20 uM after 48 hrs by MTT assay relative to control; type: cell-based; settings: read-out: GI
[2] = test system: MDA-MB-231; experiment: Cell cycle arrest in human MDA-MB-231 cells assessed as accumulation at S phase at 1.6 uM after 24 hrs by propidium iodide staining-based flow cytometric analysis (reference value: 32 +/- 4%); type: functional
[3] = Cytotoxicity against human Hs578T cells assessed as growth inhibition at 20 uM after 48 hrs by MTT assay relative to control; type: functional; settings: Hs-578T, read-out: GI
[4] = test system: Mus musculus; experiment: Toxicity in nude mouse xenografted with luciferase-expressing human MDA-MB-231 cells assessed as change in body weight at 10 to 25 mg/kg, ip administered every other day measured weekly up to day 54 relative to vehicle-treated control; type: organism-based; settings: in vivo
[5] = test system: MDA-MB-231; experiment: Induction of apoptosis in human MDA-MB-231 cells assessed as DNA ladder formation at 0.2 to 3.2 uM after 48 hrs; type: functional, cell-based
[6] = test system: MDA-MB-231; experiment: Cell cycle arrest in human MDA-MB-231 cells assessed as accumulation at S phase at 1.6 uM after 48 hrs by propidium iodide staining-based flow cytometric analysis (reference value: 26 +/- 3%); type: functional
[7] = test system: MDA-MB-231; experiment: Downregulation of Bcl-xL protein expression in human MDA-MB-231 cells after 48 hrs by Western blot analysis; type: functional, cell-based
[8] = test system: MDA-MB-231; experiment: Antitumor activity against luciferase-expressing human MDA-MB-231 cells xenografted in nude mouse assessed as tumor growth inhibition at 25 mg/kg, ip administered every other day measured on day 54 relative to vehicle-treated control; type: functional; settings: MDA-MB-231, ip, 1296 h, read-out: TGI
[9] = test system: MDA-MB-231; experiment: Upregulation of Bax protein expression in human MDA-MB-231 cells after 48 hrs by Western blot analysis; type: functional, cell-based
[10] = Cytotoxicity against human BT549 cells assessed as growth inhibition after 48 hrs by MTT assay; type: functional, cell-based; settings: BT-549, 48 h
[11] = test system: MDA-MB-231; experiment: Cell cycle arrest in human MDA-MB-231 cells assessed as accumulation at S phase at 0.4 uM after 48 hrs by propidium iodide staining-based flow cytometric analysis (reference value: 26 +/- 3%); type: functional
[12] = test system: MDA-MB-231; experiment: Cell cycle arrest in human MDA-MB-231 cells assessed as accumulation at sub-G1 phase at 1.6 uM after 24 hrs by propidium iodide staining-based flow cytometric analysis relative to control; type: functional
[13] = test system: MDA-MB-231; experiment: Cell cycle arrest in human MDA-MB-231 cells assessed as accumulation at G2/M phase at 0.8 uM after 24 hrs by propidium iodide staining-based flow cytometric analysis (reference value: 12 +/- 2%); type: functional

Oc1ccc2[nH]cc(C(c3ccc(C(c4c[nH]c5ccc(O)cc45)c4c[nH]c5ccc(O)cc45)nc3)c3c[nH]c4ccc(O)cc34)c2c1
inhibition at 48 h, 20 µM [1]: 37% | Activity [2]: 27% | inhibition of growth at 20 µM [3]: 25% | Activity [4]: Non-toxic | Activity [5]: Active | Activity [6]: 32% | Activity [7]: Dose-dependent effect | inhibition in vivo at 25 mg/kg [8]: 70% | Activity [9]: Dose-dependent effect | IC50 [10]: 4 µM | Activity [11]: 28% | Activity [12]: 16% | Activity [13]: 14.7%
